From PMC6349869, “The palladacycle complex AJ-5 induces apoptotic cell death while reducing autophagic flux in rhabdomyosarcoma cells” (Cell Death Discovery, 2019)

What was measured:
Format in all cases: cell-based, human
SW982 cells = experiment: MTT cell viability assay, SW982 synovial sarcoma; details: 48 h
Method: (§1) RH30 human aRMS cells (kindly provided by Associate Professor Judith Davie, Southern Illinois University), AX-OH-1 human aRMS and FL-OH-1 human eRMS cells (kindly provided by Professor Stefan Bath, University of Cape Town) were cultured in Roswell Park Memorial Institute Medium (RPMI)-1640 (Sigma Aldrich, Missouri, USA). […] Cell morphology was monitored using an Olympus CKX41 inverted microscope (MSAC Ltd, UK) and imaged with an EVOS™ XL AMEX1000 Core Imaging System (Thermo Fisher Scientific, Massachusetts, USA).
(§2) Cells were seeded in 96-well plates and treated the next day with a range of AJ-5 concentrations (0.1–1.0 μM) or vehicle ([…]) for 48 h. Cell viability was measured using the 3-(4,5-dimethylthiazol-2-yl)-2,5-diphenyl-trazolium bromide (MTT) assay (11465007001; Sigma Aldrich) according to the manufacturer’s instructions. Mean cell viability was calculated as a percentage of the mean vehicle control. At least three independent experiments in quadruplicate were performed from which the half maximal inhibitory concentration (IC50) was determined using GraphPad Prism version 6.0 (GraphPad Software, California, USA). The selectivity index (SI) was determined by dividing the IC50 of a normal cell line by the IC50 of a cancer cell line.

[1] = tested on: RMS cells (RH30, AX-OH-1, RD, FL-OH-1); experiment: Scratch motility assay, RMS cells; details: 24 h pre-treatment at IC50, all RMS cells tested
Method: Cells were seeded in 6-well plates and treated with IC50 AJ-5 and vehicle for 24 h. Cells were then collected, counted and replated to achieve 100% confluency in a 24-well plate. The following day a sterile 2 µL pipette tip was used to make a vertical scratch in the cell monolayer of each well and the cells treated with 10 µM mitomycin C (M4287; Sigma Aldrich) to inhibit proliferation. Cells were imaged at 0, 3, 6, 9, 12 and 24 h post wound formation and ImageJ v1.50i[58] was used to calculate the area of the scratch. The total areas migrated was determined by subtracting the area for a specific time point from the area measured at 0h.

SW1353 cells = experiment: MTT cell viability assay, SW1353 chondrosarcoma; details: 48 h
Method: as §1, §2

[2] = tested on: LC3II in RH30 and RD cells; experiment: LC3II western blotting; details: 0.1 µM or IC50, 24 and 48 h
Method: Cells were lysed at 4 °C in whole-cell lysis buffer (0.125 M Tris-HCl pH 6.8, 4% SDS, 0.2% glycerol, 0.1% β-mercaptoethanol and a pinch of bromophenol blue) and boiled for 10 min. Proteins were resolved by SDS-PAGE (6–15% gels) and transferred to Hybond ECL membranes (Amersham, UK). The membranes were incubated with primary antibodies: rabbit polyclonal antibodies to phospho-histone H2A.X (Ser139) (#2577), phospho-chk2 (Thr68) (#221), phospho-p38 MAPK (Thr180/Tyr182) (#9211), cleaved caspase-3 (Asp175) (#9661), PARP (#9542), caspase-9 (#9502), LC3B (#2775), p38 MAPK (#9212), rabbit monoclonal antibody to cleaved caspase-7 (Asp198) (D6H1) (#8438), mouse monoclonal antibodies to phospho-ATM (Ser1981) (D6H9) (#5883), Cyclin B1 (V152) (#4135), Caspase-8 (1C12) (#9746), SQSTM1/p62 (D5L7G) (#88588) from Cell Signaling Technology (Massachusetts, USA); mouse monoclonal antibody to p53 (DO-1) (sc-126), rabbit polyclonal antibodies to p21 (C-19) (sc-397), cyclin A (H-432) (sc-751), cyclin B1 (H-433)(sc-752), PARP-1 (H-250) (sc-7150) from Santa Cruz Biotechnology (Texas, USA); rabbit polyclonal antibody to p38 MAP kinase (M0800) from Sigma Aldrich. […] Densitometry readings were obtained using ImageJ v1.50i[58] and protein expression levels were represented as a ratio of protein of interest/p38 loading control normalized to the vehicletreated control sample where appropriate. […]

Which IC50 (SW982 cells) does the source give for CC(C)c1cccc(C(C)C)c1[N+]1=Cc2cccc[c]2[Pd-2]1([Cl])[P+](CC[P+](c1ccccc1)(c1ccccc1)[Pd-2]1([Cl])[c]2ccccc2C=[N+]1c1c(C(C)C)cccc1C(C)C)(c1ccccc1)c1ccccc1 (stereo not shown) [AJ-5] here?
Its IC50 is under 0.3 µM.

And the “Migratory ability (area migrated)” value [1]?
The value was “reduced the migratory ability”.

What about the IC50 (SW1353 cells) of the same compound?
The IC50 was under 0.3 µM.

And the LC3II protein level [2]?
The LC3II protein level was “induced in both RMS cell lines in a time- and dose-dependent manner”.
